Where a SMILES comes first, the peptide text is derived from it. Bridges are numbered along the chain shown (N, C = ends). The star is where a group is joined. MeO(CH2CH2O)23CH2CH2CO = COCCOCCOCCOCCOCCOCCOCCOCCOCCOCCOCCOCCOCCOCCOCCOCCOCCOCCOCCOCCOCCOCCOCCOCCC(=O)*
Tested on: FGFR3^ach mouse femurs and tibias
Experiment: mouse organ culture model of endochondral bone growth, FGFR3^ach bones
Procedure: To determine the efficacy of CNP variants in stimulating longitudinal bone growth, CNP variants were tested in a mouse organ culture model of endochondral bone growth in wild-type mice and transgenic mice having a G380R mutation in the human FGFR-3 gene (FGFR3^wt/Ach heterozygote) which represent a mouse model of mild achondroplasia. In brief, the pharmacological activity of wild-type CNP22 and CNP variants was compared in an organ culture model of embryonic or neonatal mouse tibiae, isolated from wild-type and FGFR3^wt/Ach littermates. Overall bone growth and histological changes within the growth plate were assessed. Conditioned culture medium is also assessed for biomarkers of intracellular signaling (cGMP), cartilage metabolism (type II collagen, other collagens, aggrecan chondroitin sulfate), bone metabolism (bone alkaline phosphatase, osteocalcin, type I collagen [C-telopeptide, N-telopeptide]), and inflammation (interleukin-1, interleukin 6, interleukin-11).
The efficacy of wtCNP22, CNP37 and PEO24-[…]22(K4R) (SEQ ID NO: 36) in stimulating longitudinal femoral growth was evaluated in the mouse organ culture model. For these experiments femora were isolated from 2-3 day old wild-type mice and cultured in alphaMEM supplemented with 0.2% BSA, 0.5 mM L-glutamine, 40 units penicillin/mL and 40 ug streptomycin/mL, for 8 days in the presence of vehicle, CNP22 or CNP variants. The treatment commenced at day 0 and was repeated every two days thereafter, as the medium was changed. Bones were measured prior to treatment and every two days thereafter, using a dissection microscope fitted with a 1 cm eye-piece reticule. Conditioned medium was used for biomarker analysis. At day 8 bones were fixed in 4% paraformaldehyde for 24 hr, decalcified in 5% formic acid for 24 hrs, dehydrated and embedded in paraffin. Bones were sectioned at 5 um (microns), which were then deparaffinized, rehydrated, and stained with Alcian Blue for 30 min (pH 2.5; MasterTech). Alcian Blue stains cartilage blue. Stained sections were visualized and photographed by brightfield microscopy. The thickness of the hypertrophic region of the growth plate cartilage was determined by image analysis.
Furthermore, ex vivo distribution of CNP37 in the growth plate of FGFR3^ach mouse tibia was evaluated. Bone samples were prepared as described above. Paraffin sections were cut and heat fixed for 1 hour at 60° C. Antigen retrieval with 1% hyaluronidase at 37° C. (30 minutes) was followed by a 1 hour serum block (10% Normal Goat Serum). […]
In addition to the distribution of CNP variants in the bone growth plate, the ex vivo effects of CNP37, CNP22 and vehicle on cells in the FGFR3^ach and wild-type growth plate, e.g., hypertrophic cell size and cellularity of proliferating zone, were also evaluated. […]

What does the source list for `CC[C@H](C)[C@@H]1NC(=O)[C@H](CCCNC(=N)N)NC(=O)[C@H](CC(=O)O)NC(=O)[C@H](CC(C)C)NC(=O)[C@H](CCCCN)NC(=O)[C@H](CC(C)C)NC(=O)CNC(=O)[C@H](Cc2ccccc2)NC(=O)[C@@H](NC(=O)CNC(=O)[C@H](CCCNC(=N)N)NC(=O)[C@H](CO)NC(=O)[C@H](CC(C)C)NC(=O)CNC(=O)[C@H](CCCNC(=N)N)NC(=O)[C@H](CCCNC(=N)N)NC(=O)[C@H](CC(N)=O)NC(=O)[C@H](C)NC(=O)CNC(=O)CCOCCOCCOCCOCCOCCOCCOCCOCCOCCOCCOCCOCCOCCOCCOCCOCCOCCOCCOCCOCCOCCOCCOCCOC)CSSC[C@@H](C(=O)O)NC(=O)CNC(=O)[C@H](CC(C)C)NC(=O)CNC(=O)[C@H](CO)NC(=O)[C@H](CCSC)NC(=O)[C@H](CO)NC(=O)CNC1=O` [PEO24-GANRR-CNP22(K4R)] ({MeO(CH2CH2O)23CH2CH2CO}-GANRRGLSRGCFGLKLDRIGSMSGLGC-OH; disulfide 11-27)?
levels of cleaved collagen type II in conditioned media (FGFR3^ach mouse femurs): significantly increased (p<0.05); cGMP levels in conditioned media (ex-planted FGFR3^ach mouse femurs and tibias, day 8): large increase (p<0.01); longitudinal growth of FGFR3^ach mouse femur ex vivo (treated every two days): increased the longitudinal growth of FGFR3^ach mouse femur compared to vehicle; longitudinal growth of FGFR3^ach mouse tibia ex vivo (treated every two days): increased the longitudinal growth of the tibia compared to vehicle or CNP22
